“And” between values parts separate entries of the source, which are not always exact repeats. Identical values can stand only once.
Tests used:
Format in all cases: cell-based
NLuc-PRMT5 = NLuc-PRMT5 (Homo sapiens, UniProt O14744); experiment: BRET probe CBH-002 binding kinetics (association, dissociation by GSK3326595) in live HEK293 cells; set-up: host or cells: HEK293 (live cells; digitonin lysate for the SAM titration); Tracer association (Figure S3C): unit not given here
Protocol: To determine BRET probe binding kinetics, live HEK293 cells were treated with 30 nM CBH-002 and BRET measurements were read in 3 min intervals for 2 h at room temperature.

PRMT5-NL = biological target: T1, PRMT5-NL (Homo sapiens, UniProt O14744); experiment: CBH-002 affinity curve, HEK293, PRMT5-NL fusion with empty carrier DNA (no WDR77); set-up: unit not given here; details: Figure S2B NL-PRMT5, log([CBH-002])
T1 construct: host or cells: HEK293
Protocol: (§1) HEK293 cells (ATCC) were cultured in DMEM (Thermo Fisher) + 10% (v/v) FBS (Seredigm), and HCT116 cells (Horizon Discovery, #PAR-034 and #R02-033) were cultured in McCoy’s 5A (Thermo Fisher) + 10% FBS, with incubation in a humidified, 37 °C/5% CO2 incubator. Cells were split 1–3 days prior to performing experiments and used at roughly 80% confluency. […] Cells were transfected according to the manufacturer’s protocol using FuGENE HD (Promega). NanoLuc fusion DNA was diluted into Transfection Carrier DNA (Promega) in Opti-MEM at a ratio of 1:9 (mass/mass), and FuGENE HD was added at a ratio of 1:3 (μg DNA:μL lipid). For experiments using WDR77, untagged WDR77 DNA (Promega) was used in place of Carrier DNA. Formed complexes were combined with cells resuspended to a density of 2 × 10^5 cells/mL in Opti-MEM + 1% FBS at a ratio of 1:20 (vol:vol). Cells were plated into a flask and incubated at 37 °C in a humidified 5% CO2 atmosphere for 18–24 h, before being lifted and seeded into 96-well non-binding surface-treated plates (Corning). Cells were seeded at a density of 2 × 10^5 cells/mL in Opti-MEM + 1% FBS in 100 μL (96-well). The BRET probe CBH-002 was prepared first as a 100× stock in 100% DMSO (Sigma) and then diluted to a 20× stock in NanoBRET Tracer Dilution buffer (Promega). Test compounds were prepared as 1000× stocks in 100% DMSO and diluted to 10× stocks in Opti-MEM to prepare working stocks. […] NanoBRET Complete 3x Substrate was prepared by combining Nano-Glo Substrate and Extracellular NanoLuc Inhibitor in Opti-MEM, according to the manufacturer’s protocol (Promega). NanoBRET Complete 3× Substrate was added to cells and plates were measured on either a PheraSTAR FSX equipped with 450 nm (donor) and 610 nm (acceptor) filters, or a GloMAX Discover equipped with 450/8 nm BP (donor) and 600 nm LP (acceptor) filters, using a 0.3 s integration time.
(§2) EC50 values were obtained by fitting the BRET probe and compound affinity curves to a sigmoidal four-parameter fit model in Graphpad Prism:1 Y=Ymin+Ymax−Ymin/1+10^LogEC50−Xh where h is the Hill Slope.

NL-PRMT5 = biological target: T2, NL-PRMT5 (Homo sapiens, UniProt O14744); experiment: CBH-002 affinity curve, HEK293, NL-PRMT5 fusion with empty carrier DNA (no WDR77); set-up: unit not given here; details: Figure S2A NL-PRMT5, log([CBH-002])
T2 construct: host or cells: HEK293
Protocol: as §1, §2

T2 sequence (O14744 whole entry, the tested form may be a part): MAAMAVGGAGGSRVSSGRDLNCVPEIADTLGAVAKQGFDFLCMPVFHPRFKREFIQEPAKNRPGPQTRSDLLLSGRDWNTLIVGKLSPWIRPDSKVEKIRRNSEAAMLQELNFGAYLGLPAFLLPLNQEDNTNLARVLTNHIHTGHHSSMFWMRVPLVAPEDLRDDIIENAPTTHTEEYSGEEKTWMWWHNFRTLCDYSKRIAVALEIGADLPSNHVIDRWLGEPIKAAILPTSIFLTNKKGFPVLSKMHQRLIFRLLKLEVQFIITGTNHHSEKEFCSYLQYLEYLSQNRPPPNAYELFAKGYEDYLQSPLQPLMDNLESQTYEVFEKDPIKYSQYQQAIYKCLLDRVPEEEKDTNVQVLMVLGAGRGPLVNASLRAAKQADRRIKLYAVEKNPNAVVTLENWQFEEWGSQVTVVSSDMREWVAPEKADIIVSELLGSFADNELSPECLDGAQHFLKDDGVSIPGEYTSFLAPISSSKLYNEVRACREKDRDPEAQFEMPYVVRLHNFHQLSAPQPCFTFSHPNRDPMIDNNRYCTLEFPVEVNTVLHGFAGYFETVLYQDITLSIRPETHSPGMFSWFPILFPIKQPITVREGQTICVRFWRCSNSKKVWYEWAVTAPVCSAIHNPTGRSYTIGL
NLuc-PRMT5, sequence (O14744 whole entry): as the sequence (O14744 whole entry, the tested form may be a part) above
NLuc-PRMT5, sequence (Q9BQA1 whole entry partner): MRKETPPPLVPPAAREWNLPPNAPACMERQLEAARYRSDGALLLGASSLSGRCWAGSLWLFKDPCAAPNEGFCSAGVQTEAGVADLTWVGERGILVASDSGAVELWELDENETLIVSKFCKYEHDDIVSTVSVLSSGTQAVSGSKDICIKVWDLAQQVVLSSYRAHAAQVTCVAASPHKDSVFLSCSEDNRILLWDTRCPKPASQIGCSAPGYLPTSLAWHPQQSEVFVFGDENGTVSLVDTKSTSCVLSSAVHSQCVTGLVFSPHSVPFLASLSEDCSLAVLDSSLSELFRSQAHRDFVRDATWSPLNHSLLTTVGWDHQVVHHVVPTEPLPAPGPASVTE
T1 sequence (O14744 whole entry, the tested form may be a part): as the sequence (O14744 whole entry, the tested form may be a part) above

Tracer association (Figure S3C) (NLuc-PRMT5; Time (min) -27): 84.20 and 89.90 and 88.10 and 83.20 | Tracer association (Figure S3C) (NLuc-PRMT5; Time (min) -30): 82.70 and 89.80 and 85.50 and 82.10 | Tracer association (Figure S3C) (NLuc-PRMT5; Time (min) -33): 82.30 and 86.20 and 84.70 and 81.40 | Tracer association (Figure S3C) (NLuc-PRMT5; Time (min) -36): 79.10 and 84.40 and 82.30 and 79.90 | Tracer association (Figure S3C) (NLuc-PRMT5; Time (min) -39): 78.00 and 83.20 and 80.40 and 77.80 | Tracer association (Figure S3C) (NLuc-PRMT5; Time (min) -42): 74.70 and 81.80 and 78.20 and 76.90 | Tracer association (Figure S3C) (NLuc-PRMT5; Time (min) -45): 72.40 and 79.70 and 77.50 and 73.60 | Tracer association (Figure S3C) (NLuc-PRMT5; Time (min) -48): 71.50 and 77.50 and 73.90 and 72.30 | Tracer association (Figure S3C) (NLuc-PRMT5; Time (min) -51): 70.80 and 74.30 and 71.70 and 69.80 | Tracer association (Figure S3C) (NLuc-PRMT5; Time (min) -54): 67.60 and 72.60 and 69.10 and 66.30 | Tracer association (Figure S3C) (NLuc-PRMT5; Time (min) -57): 64.20 and 69.60 and 66.90 and 64.40 | Tracer association (Figure S3C) (NLuc-PRMT5; Time (min) -60): 62.40 and 67.20 and 64.20 and 62.00 | Tracer association (Figure S3C) (NLuc-PRMT5; Time (min) -63): 58.70 and 64.40 and 60.70 and 59.40 | Tracer association (Figure S3C) (NLuc-PRMT5; Time (min) -66): 56.10 and 60.10 and 57.50 | Tracer association (Figure S3C) (NLuc-PRMT5; Time (min) -69): 53.40 and 56.10 and 54.60 and 53.80 | Tracer association (Figure S3C) (NLuc-PRMT5; Time (min) -72): 50.10 and 53.80 and 51.80 | Tracer association (Figure S3C) (NLuc-PRMT5; Time (min) -75): 46.70 and 49.90 and 47.90 and 46.40 | Tracer association (Figure S3C) (NLuc-PRMT5; Time (min) -78): 43.20 and 46.00 and 44.30 and 42.50 | Tracer association (Figure S3C) (NLuc-PRMT5; Time (min) -81): 39.30 and 42.30 and 40.80 and 39.10 | Tracer association (Figure S3C) (NLuc-PRMT5; Time (min) -84): 36.10 and 38.40 and 35.80 | Tracer association (Figure S3C) (NLuc-PRMT5; Time (min) -87): 31.70 and 33.50 and 32.20 and 31.50 | Tracer association (Figure S3C) (NLuc-PRMT5; Time (min) -90): 27.90 and 29.40 and 28.10 and 27.70 | Tracer association (Figure S3C) (NLuc-PRMT5; Time (min) -93): 22.90 and 24.80 and 24.00 and 23.50 | Tracer association (Figure S3C) (NLuc-PRMT5; Time (min) -96): 18.60 and 20.70 and 19.20 | Tracer association (Figure S3C) (NLuc-PRMT5; Time (min) -99): 13.20 and 15.60 and 14.50 | Tracer association (Figure S3C) (NLuc-PRMT5; Time (min) -102): 7.40 and 9.50 and 8.80 and 9.10 | Time for BRET biosensor to reach equilibrium (NLuc-PRMT5; live cells, room temperature, 30 nM CBH-002): ~ 2 h | BRET, CBH-002 + DMSO (PRMT5-NL; uM -1.03342): 12.5404 and 13.4407 and 13.3166 | BRET, CBH-002 + GSK3326595 (PRMT5-NL; uM -1.03342): 8.441 and 8.865 and 8.461 | BRET, CBH-002 + DMSO (PRMT5-NL; uM -1.51055): 10.7353 and 11.0633 and 11.2052 | BRET, CBH-002 + GSK3326595 (PRMT5-NL; uM -1.51055): 5.349 and 5.866 and 6.032 | BRET, CBH-002 + DMSO (PRMT5-NL; uM -1.98767): 8.8779 and 8.604 and 8.921 | BRET, CBH-002 + GSK3326595 (PRMT5-NL; uM -1.98767): 5.328 and 5.307 and 5.5055 | BRET, CBH-002 + DMSO (PRMT5-NL; uM -2.46479): 7.2471 and 8.258 and 8.573 | BRET, CBH-002 + GSK3326595 (PRMT5-NL; uM -2.46479): 3.609 and 3.848 and 3.767 | BRET, CBH-002 + DMSO (PRMT5-NL; uM -2.94191): 6.802 and 7.308 and 6.803 | BRET, CBH-002 + GSK3326595 (PRMT5-NL; uM -2.94191): 2.864 and 2.956 and 2.6211 | BRET, CBH-002 + DMSO (PRMT5-NL; uM -3.41903): 6.051 and 5.88 and 6.095 | BRET, CBH-002 + GSK3326595 (PRMT5-NL; uM -3.41903): 2.538 and 2.522 and 2.796 | BRET, CBH-002 + DMSO (PRMT5-NL; uM -3.89615): 5.285 and 4.8415 and 5.242 | BRET, CBH-002 + GSK3326595 (PRMT5-NL; uM -3.89615): 2.512 and 2.541 and 2.599 | BRET, CBH-002 + DMSO (NL-PRMT5; uM 0.04576): 20.5721 and 25.8738 and 18.388 | BRET, CBH-002 + GSK3326595 (NL-PRMT5; uM 0.04576): 1.809 and 2.429 and 2.181 | BRET, CBH-002 + DMSO (NL-PRMT5; uM 0.52288): 24.1037 and 25.1393 and 24.5832 | BRET, CBH-002 + GSK3326595 (NL-PRMT5; uM 0.52288): 4.538 and 4.814 and 4.399 | BRET, CBH-002 + DMSO (NL-PRMT5; uM 1): 34.4603 and 46.2115 and 36.0512 | BRET, CBH-002 + GSK3326595 (NL-PRMT5; uM 1): 12.5442 and 11.3355 and 11.5115 | BRET, CBH-002 + DMSO (NL-PRMT5; uM -0.43136): 17.1332 and 19.3006 and 16.5836 | BRET, CBH-002 + GSK3326595 (NL-PRMT5; uM -0.43136): 1.767 and 1.79 and 1.327 | BRET, CBH-002 + DMSO (NL-PRMT5; uM -0.90849): 13.1405 and 15.4187 and 12.8329 | BRET, CBH-002 + GSK3326595 (NL-PRMT5; uM -0.90849): 0.7756 and 0.9895 and 1.006 | BRET, CBH-002 + DMSO (NL-PRMT5; uM -1.20952): 13.3172 and 13.6477 and 14.1021 | BRET, CBH-002 + GSK3326595 (NL-PRMT5; uM -1.20952): 0.6778 and 0.9377 and 0.9652 | BRET, CBH-002 + DMSO (NL-PRMT5; uM -1.68664): 10.4832 and 12.4293 and 10.2869 | BRET, CBH-002 + GSK3326595 (NL-PRMT5; uM -1.68664): 1.144 and 1.071 and 1 | BRET, CBH-002 + DMSO (NL-PRMT5; uM -1.98767): 7.5477 and 8.773 and 6.804 | BRET, CBH-002 + GSK3326595 (NL-PRMT5; uM -1.98767): 0.4652 and 0.5599 and 0.5695 | BRET, CBH-002 + DMSO (NL-PRMT5; uM -2.46479): 4.066 and 4.851 and 4.778 | BRET, CBH-002 + DMSO (NL-PRMT5; uM -2.94191): 2.639 and 2.5785 and 2.4252
Compound: O=C(CCc1ccc2n1[B-](F)(F)[N+]1=C(c3ccc[nH]3)C=CC1=C2)NCCCCC(=O)N1CCC(Nc2cc(C(=O)NC[C@H](O)CN3CCc4ccccc4C3)ncn2)CC1 [CBH-002]

From PMC12675575, “A BRET biosensor for measuring uncompetitive engagement of PRMT5 complexes in cells” (Nature Communications, 2025)
